# Measurements from BindingDB's records for doi:10.1021/cc100073a (Amgen, 2010).
# Several values for one entry are separate records, joined by “and”; a condition that tells them apart may be missing. Identical values can stand only once.
# What was measured:
# Assay in all cases: PHD Enzymatic Assay
# Egl nine homolog 1 = Egl nine homolog 1 (Homo sapiens, UniProt Q9GZT9)
# Description: (§1) PHD1,2,3 activity was measured utilizing homogeneous time-resolved fluroescence energy transfer techology by detecting the trans-4-hydroxylatio of HIF-1alpha residue pro564 in biotin-hHIR-1alpha(558-574)(Biotin-DLEMLAPYIPMDDDFQL)peptide substrate resulting in a recognition by the Europium-tagged Von Hippel Lindau, Elongin B and Dlongin C heterotrimeric complex (VCB-Eu complex)
# Prolyl hydroxylase EGLN3 = Prolyl hydroxylase EGLN3 (Homo sapiens, UniProt Q9H6Z9)
# Description: as §1
# Prolyl hydroxylase EGLN2 = Prolyl hydroxylase EGLN2 (Homo sapiens, UniProt Q96KS0)
# Description: as §1
# Sequence of Prolyl hydroxylase EGLN3 (Q9H6Z9 whole entry): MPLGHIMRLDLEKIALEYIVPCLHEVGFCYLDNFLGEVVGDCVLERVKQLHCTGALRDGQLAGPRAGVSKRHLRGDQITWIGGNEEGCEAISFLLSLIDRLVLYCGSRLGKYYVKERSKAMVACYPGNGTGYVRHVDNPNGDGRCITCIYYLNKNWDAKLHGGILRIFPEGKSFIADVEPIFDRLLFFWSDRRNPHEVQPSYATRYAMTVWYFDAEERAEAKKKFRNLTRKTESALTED
# Sequence of Prolyl hydroxylase EGLN2 (Q96KS0 whole entry): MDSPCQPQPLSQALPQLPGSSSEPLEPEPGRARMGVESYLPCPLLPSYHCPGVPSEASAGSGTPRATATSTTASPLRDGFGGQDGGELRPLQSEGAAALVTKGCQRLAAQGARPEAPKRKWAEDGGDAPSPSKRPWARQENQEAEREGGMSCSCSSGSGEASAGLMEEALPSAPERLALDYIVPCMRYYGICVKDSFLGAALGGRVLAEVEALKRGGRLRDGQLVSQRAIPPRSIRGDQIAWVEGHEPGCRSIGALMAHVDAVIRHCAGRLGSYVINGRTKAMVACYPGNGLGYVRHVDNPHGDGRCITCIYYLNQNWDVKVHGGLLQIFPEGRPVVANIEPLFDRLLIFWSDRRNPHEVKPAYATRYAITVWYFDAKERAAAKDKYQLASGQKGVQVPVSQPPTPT
# Sequence of Egl nine homolog 1 (Q9GZT9 whole entry): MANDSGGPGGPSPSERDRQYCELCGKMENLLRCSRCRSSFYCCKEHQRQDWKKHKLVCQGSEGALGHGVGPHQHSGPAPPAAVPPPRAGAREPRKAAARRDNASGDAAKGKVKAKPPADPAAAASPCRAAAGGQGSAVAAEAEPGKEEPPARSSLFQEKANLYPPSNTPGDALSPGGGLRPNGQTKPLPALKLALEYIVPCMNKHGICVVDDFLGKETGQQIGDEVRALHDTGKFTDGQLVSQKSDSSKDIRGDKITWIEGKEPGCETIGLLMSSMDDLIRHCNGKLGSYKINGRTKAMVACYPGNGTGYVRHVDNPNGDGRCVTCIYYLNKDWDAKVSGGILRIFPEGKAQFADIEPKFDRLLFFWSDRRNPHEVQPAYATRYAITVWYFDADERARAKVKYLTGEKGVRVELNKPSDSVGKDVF
SMILES,IC50 (Egl nine homolog 1),IC50 (Prolyl hydroxylase EGLN3),IC50 (Prolyl hydroxylase EGLN2)
"CC(=O)NCc1ccc2c(c1)c(O)c(C(=O)NCC(=O)O)c(=O)n2C [PHD Inhibitor, 5]",546 nM,–,–
"CC(=O)N[C@@H](Cc1ccccc1)C(=O)NCc1ccc2c(c1)c(O)c(C(=O)NCC(=O)O)c(=O)n2C [PHD Inhibitor, 8{1}]",482 nM,–,–
"CC(=O)N[C@H](Cc1ccccc1)C(=O)NCc1ccc2c(c1)c(O)c(C(=O)NCC(=O)O)c(=O)n2C [PHD Inhibitor, 8{2}]",112 nM,–,–
"CC(=O)N[C@H](CC(C)C)C(=O)NCc1ccc2c(c1)c(O)c(C(=O)NCC(=O)O)c(=O)n2C [PHD Inhibitor, 8{3}]",521 nM,–,–
"CC(=O)NCC(=O)NCc1ccc2c(c1)c(O)c(C(=O)NCC(=O)O)c(=O)n2C [PHD Inhibitor, 8{4}]",293 nM,–,–
"CC(=O)N[C@@H](CO)C(=O)NCc1ccc2c(c1)c(O)c(C(=O)NCC(=O)O)c(=O)n2C [PHD Inhibitor, 8{5}]",265 nM,–,–
"CC(=O)N[C@@H](CC(=O)O)C(=O)NCc1ccc2c(c1)c(O)c(C(=O)NCC(=O)O)c(=O)n2C [PHD Inhibitor, 8{6}]",138 nM,–,–
"CC(=O)N[C@@H](CCCCN)C(=O)NCc1ccc2c(c1)c(O)c(C(=O)NCC(=O)O)c(=O)n2C [PHD Inhibitor, 8{7}]",409 nM,–,–
"CC(=O)N[C@@H](Cc1ccc2ccccc2c1)C(=O)N[C@@H](Cc1ccccc1)C(=O)NCc1ccc2c(c1)c(O)c(C(=O)NCC(=O)O)c(=O)n2C [PHD Inhibitor, 12{1,1,2}]",35 nM,4.5 nM,4.3 nM
"Cn1c(=O)c(C(=O)NCC(=O)O)c(O)c2cc(CNC(=O)[C@H](Cc3ccccc3)NC(=O)[C@H](Cc3ccccc3)NC(=O)CCN3CCOCC3)ccc21 [PHD Inhibitor, 12{1,5,3}]",2920 nM,165 nM,95 nM
"CC(=O)N[C@H](Cc1ccc2ccccc2c1)C(=O)N[C@H](Cc1ccccc1)C(=O)NCc1ccc2c(c1)c(O)c(C(=O)NCC(=O)O)c(=O)n2C [PHD Inhibitor, 12{2,1,2}]",93.8 nM,6.4 nM,13.5 nM
"Cn1c(=O)c(C(=O)NCC(=O)O)c(O)c2cc(CNC(=O)[C@@H](Cc3ccccc3)NC(=O)[C@@H](Cc3ccc4ccccc4c3)NC(=O)C(C)(C)C)ccc21 [PHD Inhibitor, 12{2,1,4}]",308 nM,18.8 nM,60.8 nM
"Cn1c(=O)c(C(=O)NCC(=O)O)c(O)c2cc(CNC(=O)[C@@H](Cc3ccccc3)NC(=O)C[C@H](Cc3ccccc3)NC(=O)c3ccccc3)ccc21 [PHD Inhibitor, 12{2,3,1}]",1560 nM,40 nM,49 nM
"CC(=O)N[C@H](Cc1ccccc1)C(=O)N[C@H](Cc1ccccc1)C(=O)NCc1ccc2c(c1)c(O)c(C(=O)NCC(=O)O)c(=O)n2C [PHD Inhibitor, 12{2,3,2}]",37.4 nM and 90.2 nM,11.7 nM and 13.5 nM,7.2 nM and 12.2 nM
"Cn1c(=O)c(C(=O)NCC(=O)O)c(O)c2cc(CNC(=O)[C@@H](Cc3ccccc3)NC(=O)[C@@H](Cc3ccccc3)NC(=O)C(C)(C)C)ccc21 [PHD Inhibitor, 12{2,3,4}]",86.4 nM and 104 nM,12.6 nM and 13.2 nM,12.9 nM and 14.6 nM
"Cn1c(=O)c(C(=O)NCC(=O)O)c(O)c2cc(CNC(=O)[C@@H](Cc3ccccc3)NC(=O)[C@@H](Cc3ccccc3)NC(=O)c3ccccc3)ccc21 [PHD Inhibitor, 12{2,4,1}]",–,20 nM and 5.3 nM,22 nM and 8.5 nM
"CC(=O)N[C@@H](Cc1ccccc1)C(=O)N[C@H](Cc1ccccc1)C(=O)NCc1ccc2c(c1)c(O)c(C(=O)NCC(=O)O)c(=O)n2C [PHD Inhibitor, 12{2,5,2}]",44.8 nM,8.9 nM,7.6 nM
"CC(=O)N[C@@H](CC(C)C)C(=O)N[C@H](Cc1ccccc1)C(=O)NCc1ccc2c(c1)c(O)c(C(=O)NCC(=O)O)c(=O)n2C [PHD Inhibitor, 12{2,6,2}]",67.5 nM,16.2 nM,11 nM
"CC(C)C[C@@H](NC(=O)C(C)(C)C)C(=O)N[C@H](Cc1ccccc1)C(=O)NCc1ccc2c(c1)c(O)c(C(=O)NCC(=O)O)c(=O)n2C [PHD Inhibitor, 12{2,6,4}]",113 nM,16.8 nM,14.5 nM
"CC(C)C[C@H](NC(=O)[C@H](Cc1cccc2ccccc12)NC(=O)C(C)(C)C)C(=O)NCc1ccc2c(c1)c(O)c(C(=O)NCC(=O)O)c(=O)n2C [PHD Inhibitor, 12{3,1,4}]",1100 nM,77 nM,32 nM
"CC(=O)N[C@@H](Cc1ccc2ccccc2c1)C(=O)NCC(=O)NCc1ccc2c(c1)c(O)c(C(=O)NCC(=O)O)c(=O)n2C [PHD Inhibitor, 12{4,1,2}]",41.9 nM,13.5 nM,5.1 nM
